Series [1] in a line: Plasma protein binding in human. Conditions: read-out: PPB (converted). Format: ADME, cell-free.
Series [2] is described as follows: Volume of distribution at steady state in monkey at 1 mg/kg, iv. It counts as ADME, organism-based, Macaca mulatta. The conditions noted are these: rhesus monkey, in vivo, read-out: Vdss. More on the design: dose 1 mg/kg, route intravenous.
The nature of series [3]: Oral bioavailability in monkey at 3 mg/kg, po. The conditions noted are these: rhesus monkey, in vivo. It counts as ADME, organism-based, Macaca mulatta.
Series [4] is described as follows: Half life in monkey at 3 mg/kg, po. Details: dose 3 mg/kg, route oral. Format: ADME, organism-based, Macaca mulatta. The conditions noted are these: rhesus monkey, in vivo.
The target in another series is T1, Cytochrome P450 2A6 (Homo sapiens, UniProt P11509).
T1 sequence (P11509 whole entry): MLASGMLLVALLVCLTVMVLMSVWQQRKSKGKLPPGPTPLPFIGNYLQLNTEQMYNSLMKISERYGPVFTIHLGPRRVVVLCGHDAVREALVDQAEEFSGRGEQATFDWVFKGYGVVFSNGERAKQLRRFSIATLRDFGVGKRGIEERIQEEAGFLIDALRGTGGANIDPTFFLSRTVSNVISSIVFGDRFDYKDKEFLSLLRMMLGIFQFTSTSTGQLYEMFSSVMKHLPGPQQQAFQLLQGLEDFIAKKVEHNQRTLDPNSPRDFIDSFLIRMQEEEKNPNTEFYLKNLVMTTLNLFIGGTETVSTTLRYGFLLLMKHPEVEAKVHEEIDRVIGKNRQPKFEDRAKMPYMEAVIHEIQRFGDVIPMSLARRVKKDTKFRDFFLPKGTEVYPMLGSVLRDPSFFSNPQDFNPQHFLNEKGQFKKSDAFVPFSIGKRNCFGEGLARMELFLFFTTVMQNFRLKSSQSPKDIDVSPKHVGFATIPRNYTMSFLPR
Briefly: Inhibition of CYP2A6. Format: ADME.

A short description of series [5]: Plasma protein binding in dog. Format: ADME, cell-free, Canis lupus familiaris. Conditions: read-out: PPB (converted).
In series [6] the target is T2, Muscarinic acetylcholine receptor M4 (Homo sapiens, UniProt P08173).
T2 sequence (P08173 whole entry): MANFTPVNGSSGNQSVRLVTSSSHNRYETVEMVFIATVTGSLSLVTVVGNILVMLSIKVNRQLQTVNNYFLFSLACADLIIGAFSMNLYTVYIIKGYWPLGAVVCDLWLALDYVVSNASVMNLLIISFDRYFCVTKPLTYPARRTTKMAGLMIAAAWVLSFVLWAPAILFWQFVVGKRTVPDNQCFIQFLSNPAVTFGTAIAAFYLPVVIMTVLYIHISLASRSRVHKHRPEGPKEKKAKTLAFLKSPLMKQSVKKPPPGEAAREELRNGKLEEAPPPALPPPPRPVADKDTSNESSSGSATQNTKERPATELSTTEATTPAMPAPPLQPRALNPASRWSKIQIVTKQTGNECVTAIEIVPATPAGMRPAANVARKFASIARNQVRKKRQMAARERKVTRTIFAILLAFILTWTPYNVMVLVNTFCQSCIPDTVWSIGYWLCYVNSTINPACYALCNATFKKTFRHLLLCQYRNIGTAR
Briefly: Binding affinity to muscarinic receptor 4.

For series [7], the target named is T3, Muscarinic acetylcholine receptor M2 (Homo sapiens, UniProt P08172).
T3 sequence (P08172 whole entry): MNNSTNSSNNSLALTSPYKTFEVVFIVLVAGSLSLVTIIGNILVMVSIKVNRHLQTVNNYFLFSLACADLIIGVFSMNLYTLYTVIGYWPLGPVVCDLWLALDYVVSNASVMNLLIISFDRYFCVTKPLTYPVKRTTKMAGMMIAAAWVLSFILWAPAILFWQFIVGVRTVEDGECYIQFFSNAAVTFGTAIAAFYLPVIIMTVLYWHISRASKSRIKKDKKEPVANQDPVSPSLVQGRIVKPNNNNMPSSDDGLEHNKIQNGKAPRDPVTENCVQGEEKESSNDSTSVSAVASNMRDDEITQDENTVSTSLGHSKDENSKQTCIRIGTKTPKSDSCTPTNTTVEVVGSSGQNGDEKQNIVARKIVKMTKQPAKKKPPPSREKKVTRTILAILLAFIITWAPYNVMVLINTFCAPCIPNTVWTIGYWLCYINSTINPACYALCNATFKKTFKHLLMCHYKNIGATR
Put plainly: Binding affinity to muscarinic receptor 2.

The nature of series [8]: Plasma protein binding in rat. It counts as ADME, cell-free. The conditions noted are these: read-out: PPB (converted).
A further series concerns the target Cytochrome P450 3A4 (Homo sapiens, UniProt P08684). Briefly: Inhibition of CYP3A4. It counts as ADME.
The next series has as its target Dipeptidyl peptidase 4 (Homo sapiens, UniProt P27487). Put plainly: Inhibition of DPP4 in human plasma assessed as formation of 7-amino-4-methylcoumarin from glycyl-L-proline 4-methylcoumaryl-7-amide by fluorescence assay.
The nature of series [9]: Oral bioavailability in dog at 3 mg/kg, po. It counts as ADME, organism-based, Canis lupus familiaris. The conditions noted are these: in vivo.
The nature of series [10]: Oral bioavailability in rat at 3 mg/kg. Conditions: in vivo. Format: ADME, organism-based.
A further series has as its target T4, Cytochrome P450 2C8 (Homo sapiens, UniProt P10632).
T4 sequence (P10632 whole entry): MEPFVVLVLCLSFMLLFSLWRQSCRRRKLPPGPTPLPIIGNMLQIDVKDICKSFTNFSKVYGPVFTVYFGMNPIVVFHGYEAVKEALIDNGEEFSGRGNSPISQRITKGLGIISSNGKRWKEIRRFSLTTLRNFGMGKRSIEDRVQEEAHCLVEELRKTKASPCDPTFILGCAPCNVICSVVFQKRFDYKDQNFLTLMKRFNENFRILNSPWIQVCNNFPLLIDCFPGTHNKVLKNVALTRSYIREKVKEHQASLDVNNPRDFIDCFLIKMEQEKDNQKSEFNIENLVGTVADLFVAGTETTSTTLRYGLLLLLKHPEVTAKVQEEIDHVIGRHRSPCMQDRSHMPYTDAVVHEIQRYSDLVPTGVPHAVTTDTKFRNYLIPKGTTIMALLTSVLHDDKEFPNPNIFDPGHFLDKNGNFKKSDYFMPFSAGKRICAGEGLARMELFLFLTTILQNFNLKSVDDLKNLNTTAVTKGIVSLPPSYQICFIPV
Briefly: Inhibition of CYP2C8. It counts as ADME.

Chain of Cytochrome P450 3A4 (P08684 whole entry): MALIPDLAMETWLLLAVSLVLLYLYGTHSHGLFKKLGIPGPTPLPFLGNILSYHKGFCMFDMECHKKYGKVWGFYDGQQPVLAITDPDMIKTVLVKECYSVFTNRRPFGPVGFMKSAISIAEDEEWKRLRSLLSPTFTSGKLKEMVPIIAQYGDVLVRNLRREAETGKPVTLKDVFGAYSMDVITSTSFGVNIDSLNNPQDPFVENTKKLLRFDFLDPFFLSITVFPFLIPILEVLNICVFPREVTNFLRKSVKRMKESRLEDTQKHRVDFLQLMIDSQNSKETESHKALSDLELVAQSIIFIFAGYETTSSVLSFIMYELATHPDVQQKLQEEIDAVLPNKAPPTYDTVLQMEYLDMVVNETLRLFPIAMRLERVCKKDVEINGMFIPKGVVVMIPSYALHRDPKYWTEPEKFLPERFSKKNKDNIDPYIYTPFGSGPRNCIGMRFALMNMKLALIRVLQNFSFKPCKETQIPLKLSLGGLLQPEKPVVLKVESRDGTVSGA
Chain of Dipeptidyl peptidase 4 (P27487 whole entry): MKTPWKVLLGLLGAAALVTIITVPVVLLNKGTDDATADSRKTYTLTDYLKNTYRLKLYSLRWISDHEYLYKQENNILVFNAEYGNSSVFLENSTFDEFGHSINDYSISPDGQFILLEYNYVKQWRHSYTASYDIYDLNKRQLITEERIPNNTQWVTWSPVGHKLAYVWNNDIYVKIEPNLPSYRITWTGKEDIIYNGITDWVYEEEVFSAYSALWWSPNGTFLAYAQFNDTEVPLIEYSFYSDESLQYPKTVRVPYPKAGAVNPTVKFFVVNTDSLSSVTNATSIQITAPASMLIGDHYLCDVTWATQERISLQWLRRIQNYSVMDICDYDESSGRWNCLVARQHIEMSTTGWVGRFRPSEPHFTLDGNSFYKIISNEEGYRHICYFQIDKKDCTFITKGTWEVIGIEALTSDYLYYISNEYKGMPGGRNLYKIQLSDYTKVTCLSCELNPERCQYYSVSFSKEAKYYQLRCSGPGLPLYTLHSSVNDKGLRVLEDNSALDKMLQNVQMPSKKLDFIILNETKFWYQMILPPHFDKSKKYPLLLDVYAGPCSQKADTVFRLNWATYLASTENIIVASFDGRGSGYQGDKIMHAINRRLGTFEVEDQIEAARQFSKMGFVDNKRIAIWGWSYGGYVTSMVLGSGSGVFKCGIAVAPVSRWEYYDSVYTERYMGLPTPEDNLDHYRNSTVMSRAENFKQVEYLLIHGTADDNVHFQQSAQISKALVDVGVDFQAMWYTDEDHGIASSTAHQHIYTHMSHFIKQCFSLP

A word on the bioavailability: it is dose-corrected exposure relative to a reference, in per cent. What is called half-life is the time in which the quantity being followed falls by half. What is called IC50 is the point on the concentration scale where inhibition reaches its midpoint. For `Cn1c(=O)c2c(cc(N3CCC[C@@](C)(N)C3)n2Cc2cc(F)ccc2C#N)n(C)c1=O`, the fraction unbound in series [1] is 0.27; in series [5], 0.41; in series [8] it was 0.22. Besides, the Vd in series [2] came to 10 L/kg. For the same compound, the bioavailability in series [3] came to 38%; in series [9] it was 91%; in series [10], 52%. This compound also showed a half-life in series [4] of 15 h. The IC50 is above 50 µM against Cytochrome P450 2A6; above 10 µM in series [6]; above 10 µM in series [7]; above 50 µM on Cytochrome P450 3A4; 0.0011 µM at Dipeptidyl peptidase 4; above 50 µM against Cytochrome P450 2C8.

The record behind these values is ChEMBL document CHEMBL1817578, “2-({6-[(3R)-3-amino-3-methylpiperidine-1-yl]-1,3-dimethyl-2,4-dioxo-1,2,3,4-tetrahydro-5H-pyrrolo[3,2-d]pyrimidine-5-yl}methyl)-4-fluorobenzonitrile (DSR-12727): a potent, orally active dipeptidyl peptidase IV inhibitor without mechanism-based inactivation of CYP3A” (Bioorg Med Chem, 2011).
